Results as given in US20040220164A1, “Triaza compound immunoregulatory agents” (priority 2001, published 2004).
In brackets after ≈: the same amount, converted by molar mass. Each block holds one compound with its values, some of them ahead of it.

Legend:
HIV-1 strain NL4.3 = experiment: Anti-HIV-1 assay in MT-4 cells (p24 Ag ELISA, Example 3); assay type: cell-based; conditions: MT-4 cells; for IC50: Human immunodeficiency virus 1, MT4, read-out: IC50 HIV-1 (NL4.3), p24 Ag ELISA
Experimental: Antiviral Assays. For HIV-1, MT-4 cells were infected with the HIV-1 strain NL4.3. Briefly, five-fold dilutions of the compounds (in 100 μl) were added to 96-well flat bottom plates (Iwaki, Japan). Then, to each well, 7.5×10^4 MT-4 cells were added in 50 μl medium, followed by 50 μl of diluted HIV-1 stock (strain NL4.3). Cytopathic effect (CPE) induced by the virus was checked regularly microscopically. When strong CPE was observed (after 3 to 5 days of incubation) in untreated HIV-1 infected cells, the supernatant was collected, stored at −20° C. and analyzed for HIV-1 core antigen by p24 Ag ELISA (NEN™, PerkinElmer Life Sciences, Boston, Mass.). Finally, the IC50 value of the compounds (i.e., the concentration of the compound required for 50% reduction of HIV infection as measured by viral p24 antigen level in the supernatant of infected MT-4 cells) was calculated.

CD4 [1] = target: T1, CD4 (Homo sapiens, UniProt P01730); experiment: CD4 down-modulation, flow cytometry with FITC-conjugated anti-CD4 (SK3) mAb, MT-4 cells; assay type: cell-based; parameters: To study the effect of the CADA derivatives on surface CD4 antigen expression, MT-4 and SupT1 cells were incubated; endogenous in cells; host or cells: MT-4, SupT1, PBMC; conditions: for IC50: read-out: IC50 CD4 (50% inhibition of extracellular CD4 expression) (converted)
Experimental: Flow Cytometric Analyses. To study the effect of the CADA derivatives on surface CD4 antigen expression, MT-4 and SupT1 cells were incubated with a serial 5-fold dilution of the compounds (50, 10, 2, 0.4 and 0.08 μg/ml) or medium at 37° C. […] Briefly, after washing with phosphate-buffered saline (PBS) containing 2% fetal calf serum (FCS), cells were incubated with FITC-conjugated anti-CD4 (SK3) mAb for 30 min at 4° C. As a negative control for a specific background staining, cells were stained in parallel with Simultest Control γ1/γ^2a (Becton Dickinson). Then the cells were washed, fixed with 1% formaldehyde and analyzed by flow cytometry in a FACScalibur (Becton Dickinson, San Jose, Calif., USA). Data were acquired and analyzed with CellQuest software (Becton Dickinson). For the calculation of the CD4 receptor expression, the mean fluorescence intensity (MFI) of each sample was expressed as percentage of the MFI of control cells (after subtracting the MFI of the isotype control). Finally, the IC50 value of the compounds (i.e., the concentration of the compound required for 50% inhibition of extracellular CD4 expression) was calculated.

CD4 [2] = target: T1, CD4; experiment: CD4 down-modulation, flow cytometry with FITC-conjugated anti-CD4 (SK3) mAb, SupT1 cells; assay type: cell-based; parameters: To study the effect of the CADA derivatives on surface CD4 antigen expression, MT-4 and SupT1 cells were incubated; endogenous in cells; host or cells: MT-4, SupT1, PBMC; conditions: for IC50: day 4, read-out: IC50 CD4 (50% inhibition of extracellular CD4 expression) (converted)
Experimental: Flow Cytometric Analyses. To study the effect of the CADA derivatives on surface CD4 antigen expression, MT-4 and SupT1 cells were incubated with a serial 5-fold dilution of the compounds (50, 10, 2, 0.4 and 0.08 μg/ml) or medium at 37° C. Cell surface CD4 antigen expression was analyzed at day 3 (MT-4) or day 4 (SupT1). Briefly, after washing with phosphate-buffered saline (PBS) containing 2% fetal calf serum (FCS), cells were incubated with FITC-conjugated anti-CD4 (SK3) mAb for 30 min at 4° C. As a negative control for a specific background staining, cells were stained in parallel with Simultest Control γ1/γ^2a (Becton Dickinson). Then the cells were washed, fixed with 1% formaldehyde and analyzed by flow cytometry in a FACScalibur (Becton Dickinson, San Jose, Calif., USA). Data were acquired and analyzed with CellQuest software (Becton Dickinson). For the calculation of the CD4 receptor expression, the mean fluorescence intensity (MFI) of each sample was expressed as percentage of the MFI of control cells (after subtracting the MFI of the isotype control). Finally, the IC50 value of the compounds (i.e., the concentration of the compound required for 50% inhibition of extracellular CD4 expression) was calculated.

MT-4 cells = experiment: Cytotoxicity assay (trypan blue exclusion, propidium iodide); assay type: cell-based, human
Experimental: (§1) Cytotoxicity Assay. Cellular toxicity of the compounds was measured by trypan blue exclusion and also by Propidium Iodide by flow cytometry after 3 or 4 days of incubation, in parallel with the CD4 antigen expression. The CC50 value of each CADA analog is the concentration (in μg/ml) required to reduce the viability of the cells by 50%.

SupT1 cells = experiment: as above; assay type: cell-based, human
Experimental: as §1

HHV-7 (KHR strain) [3] = experiment: Anti-HHV-7 assay in SupT1 cells (antigen expression, flow cytometry, Example 3); assay type: cell-based; conditions: SupT1 cells; for IC50: SUP-T1, read-out: IC50 HHV-7 (50% reduction of HHV-7 antigen expression)
Experimental: For HHV-7, five-fold dilutions of the compounds were added in 500 μl culture medium in 24-well flat bottom plates (Iwaki, Japan), whereupon 2×10^5 SupT1 cells were added in 400 μl culture medium. After 30 min incubation at room temperature, 100 μl of HHV-7 stock was added to each well. HHV-7-infected and mock-infected SupT1 cells were cultured in a final volume of 1 ml medium in the absence of the compounds. On day 4, half of the medium and the cells were replaced and fresh medium without new compound was added. This procedure was repeated every 2 or 3 days. The CPE was checked regularly microscopically. When CPE was observed, the HHV-7 antigen expression was monitored by flow cytometry, as described previously (Zhang, Y. et al. (1999) “Selective activity of various antiviral compounds against HHV-7 infection Antiviral Res. 43, 23-35.)

HHV-7 (KHR strain) [4] = experiment: Anti-HHV-7 assay (HHV-7 antigen expression, flow cytometry, day 12); assay type: cell-based; conditions: SUP-T1, read-out: IC50 for HHV-7 infection
Experimental: The antiviral activity of CADA against HIV-1 and RHV-7 was investigated. PBMCs and […] cell-depleted PBMCs (removed with CD8 magnetic beads; Dynal AS, Oslo, Norway), previously activated with purified PHA (2 μg/ml) and rhIL-2 (1 ng/ml) for 3 days, were pelleted and exposed to HIV-1 (1 ng p24 Ag per 10^6 cells) for 2 hours at 370C. Then the cells were washed three times with warm medium and cultured in complete medium containing rhIL-2 (1 ng/ml) in the presence or absence of different concentrations of CADA hydrochloride. The anti-HIV-1 assays were also performed in MT-4 and SupT1 cells. CADA hydrochloride was diluted in the plates, then the MT-4 cells or SupT1 cells were added and finally the T-tropic HIV-1 strains. The supernatant was collected at day 5 for MT-4 cells, day 8 for SupT1 cells and day 12 for PBMCs, and stored at −20° C. and analyzed for HIV-1 core antigen by p24 Ag ELISA (NEN, Brussels, Belgium). The SupT1 cells were refreshed on day 4, and half of the medium and cells were replaced and fresh CADA-free medium was added. For the PBMCs, fresh culture medium was added at day 6 containing rhIL-2 (but no CADA). For the anti-HHV-7 assays in PBMCs, CADA hydrochloride was diluted in a plate, 2×10˜cells were added and then HHV-7 (KHR strain) was added in complete medium containing rhIL-2 (1 ng/ml). Fresh culture medium was added again at day 6 containing rhIL-2 (but no CADA). The same infection protocol was used for the SupT1 cells, but without rhIL-2. The SupT1 cells were refreshed on day 4 and day 8, half of the medium and the cells were replaced, and fresh medium without CADA was added. The HHV-7 antigen expression was monitored (at day 12) with a specific mAb to HHV-7 (RK-4) (Advanced Biotechnologies, Columbia, Md.) by flow cytometry, as described previously (Thang, Y., et al., Antiviral Res. 43:23-35 (1999)).

[5] = Cytotoxic concentration (Example 2); assay type: cell-based; conditions: human, SupT1 cells; read-out: CC50
HIV-1 and HHV-7 = experiment: Selectivity index (ratio of CC50 to IC50), antiviral assays; assay type: cell-based; conditions: over the viruses and cell types tested
Experimental: The IC50 of CADA against the CCR5-using (R5) HIV-1 strain BaL was 0.8 μM in PBMCs. […] The IC50 of PMA for the HIV-1 strains (IIIB, RF and NL4.3) in MT-4 cells was about 0.3 nM, and the IC50 for HHV-7 infection in SupT1 cells was 0.6 nM.

CD4 [6] = target: T1, CD4; experiment: Cell surface CD4 expression by flow cytometry (anti-CD4 mAb Leu3a-PE); assay type: cell-based; parameters: To study the effect of the CADA derivatives on surface CD4 antigen expression, MT-4 and SupT1 cells were incubated; endogenous in cells; host or cells: MT-4, SupT1, PBMC; conditions: for percentage of cell surface CD4 expression: SupT1 cells, ATA 24 μM, CADA 16 μM, PMA 8 nM (FIG. 4)
Experimental: FIGS. 2A-2C. Surface CD4 expression in MT-4 cell line, SupT1 cell line and PBMCs after incubation with CADA hydrochloride (3.2 or 16 μM) for 1 and 4 days. (A) Cell surface CD4 expression of control MT-4 cells and MT-4 cells treated with CADA (3.2 μM) for 1 day or 4 days. (B) Cell surface CD4 expression of control SupT1 cells and SupT1 cells treated with CADA (3.2 μM) for 1 day or 4 days. (C) Cell surface CD4 expression of control PBMCs and PBMCs treated with CADA (16 μM) for 1 day or 4 days. The cells were stained with anti-CD4 mAb (Leu3a-PE). Percentages of fluorescent cells and MFI (mean fluorescence intensity) are indicated in each histogram.
FIG. 4. Comparison of the effects on CD4 modulation by ATA (24 μM), CADA hydrochloride (16 μM) and PMA (8 nM) in SupT1 cells after incubation with the compounds analyzed after 20 minutes, 4 hours, 1 day and 4 days.
Cells were incubated with CADA hydrochloride and the CD4 expression on the cell surface was analyzed. […] In peripheral blood mononuclear cells (PBMCs), the percentage of CD4 expression decreased to 0.2% after incubation with CADA (16 μM) for 4 days (FIG. 2).
Expression of various other surface antigens was also examined in MT-4 cells, SupT1 cells and PBMCs after incubation with CADA (16 μM) or CADA-free medium at 37° C. for 4 days. After washing with phosphate-buffered saline (PBS) containing 2% FCS(fetal calf serum), the cells were incubated with mAb (as indicated in Table 1) for 20 min at 4° C. Then the cells were washed, fixed with 1% formaldehyde and analyzed by flow cytometry. All mAbs were purchased from Becton-Dickinson (Erembodegem, Belgium).
CADA was compared with ATA and PMA with regard to their down-modulating effects. […] At day 4, the CD4 expression in SupT1 cells treated with CADA reduced to 1.2%.

[7] = Cytotoxic concentration (Example 2); assay type: cell-based; conditions: human, MT-4 cells; read-out: CC50
[8] = Cytotoxicity assay (trypan blue exclusion, propidium iodide); assay type: cell-based, human; conditions: human, read-out: CC50 (50% cytotoxic concentration)
Experimental: as §1

Structure (SMILES): C=C1CN(S(=O)(=O)c2ccc(C)cc2)CCCN(Cc2cccnc2)CCCN(S(=O)(=O)c2ccc(C)cc2)C1 [AS-N6P6]
IC50 HIV-1 (NL4.3), p24 Ag ELISA (HIV-1 strain NL4.3): 2.38 µg/mL (≈ 4.08 µM) | IC50 CD4 (50% inhibition of extracellular CD4 expression) (CD4 [1]; MT-4 cells, day 3): 3.22 µg/mL | CD4 down-modulating activity, fold less active than CADA (CD4 [1]; compared to CADA, MT-4 cells (stated for some compounds)): 7 fold | IC50 CD4 (50% inhibition of extracellular CD4 expression) (CD4 [2]; day 4): 4.27 µg/mL | CC50 (50% cytotoxic concentration) (MT-4 cells): 21.4 µg/mL (≈ 36.7 µM) | CC50 (50% cytotoxic concentration) (SupT1 cells): >50 µg/mL | IC50 HHV-7 (50% reduction of HHV-7 antigen expression) (HHV-7 (KHR strain) [3]): 1.50 µg/mL

Structure (SMILES): CCCCCCCCCCCCCC(=O)O[C@@H]1[C@@H](C)[C@@]2(O)[C@@H](C=C(CO)C[C@]3(O)C(=O)C(C)=C[C@@H]23)[C@@H]2C(C)(C)[C@]12OC(C)=O [PMA, Phorbol myristate acetate, reference compound]
IC50 (HHV-7 (KHR strain) [4]): 0.0006 µM | CC50 [5]: 0.0015 µM | selectivity index (SI), ratio of CC50 to IC50 (HIV-1 and HHV-7): 2-7 | percentage of cell surface CD4 expression (CD4 [6]; 20 minutes): only a slight CD4 decrease | percentage of cell surface CD4 expression (CD4 [6]; 4 hours): dramatically decreased | percentage of cell surface CD4 expression (CD4 [6]; 1 day): almost undetectable | percentage of cell surface CD4 expression (CD4 [6]; 4 days): 81.6% | CC50 [7]: 0.0021 µM

IC50 (HIV-1 strain NL4.3): 4.23 µg/mL (≈ 7.56 µM) | IC50 (CD4 [1]; MT-4 cells, day 3): 9.54 µM | IC50 (CD4 [2]): 14.1 µM | IC50 (HHV-7 (KHR strain) [3]): 1.55 µg/mL (≈ 2.77 µM) | down-regulation of CD4 expression (in words) (CD4 [6]): down-regulate CD4 expression
Structure (SMILES): C=C1CN(S(=O)(=O)c2ccc(C)cc2)CCCN(C2CCCC2)CCCN(S(=O)(=O)c2ccc(C)cc2)C1 [QJ040]
CC50 ([8]; MT-4 cells): 17 µg/mL (≈ 30.4 µM) | CC50 ([8]; SupT1 cells): 20.5 µg/mL (≈ 36.6 µM)

IC50 (HIV-1 strain NL4.3): 3.66 µg/mL (≈ 6.71 µM) | IC50 (CD4 [1]; MT-4 cells, day 3): 6.38 µM | CD4 down-modulating activity compared with CADA or parent analog (in words) (CD4 [1]; structure-activity discussion of Table 5 (MT-4 and SupT1 cells)): reduced the activity | IC50 (CD4 [2]): 7.6 µM | IC50 (HHV-7 (KHR strain) [3]): 1.76 µg/mL (≈ 3.22 µM) | down-regulation of CD4 expression (in words) (CD4 [6]): down-regulate CD4 expression
Structure (SMILES): C=C1CN(S(=O)(=O)c2ccc(C)cc2)CCCN(CC2CC2)CCCN(S(=O)(=O)c2ccc(C)cc2)C1 [QJ041]
CC50 ([8]; MT-4 cells): 18.6 µg/mL (≈ 34.1 µM) | CC50 ([8]; SupT1 cells): 21.9 µg/mL (≈ 40.1 µM)
